Data from publication PMC6566410, “Novel Diamide-Based Benzenesulfonamides as Selective Carbonic Anhydrase IX Inhibitors Endowed with Antitumor Activity: Synthesis, Biological Evaluation and In Silico Insights” (International Journal of Molecular Sciences, 2019).

Experiments:
hCA XII = hCA XII (Homo sapiens, UniProt O43570); assay: stopped-flow CO2 hydrase assay; conditions: for Selectivity ratio I/XII: KI hCA I / KI hCA XII; for Selectivity ratio II/XII: KI hCA II / KI hCA XII
Source text: (§3) An Applied Photophysics stopped-flow instrument was used for assaying the CA catalysed CO2 hydration activity, as reported earlier [17]. The inhibition constants were obtained by non-linear least-squares methods using PRISM 3 and the Cheng-Prusoff equation as reported earlier, and represent the mean from at least three different determinations. The four tested CA isofoms were recombinant ones obtained in-house as reported earlier [26, 27, 28, 29].

SK-MEL-2 = assay: NCI one-dose SRB assay; type: cell-based; conditions: Homo sapiens, SK-MEL-2 (Melanoma), 1.00E-5 Molar, read-out: Growth Percent
Method: (§1) First, all diamide-based benzenesulfonamides herein reported 5a–h were screened for their antitumor activity at one dose (10^−5 M) assay against a panel of sixty cancer cell lines through the National Cancer Institute (NCI) Developmental Therapeutic Program (www.dtp.nci.nih.gov), according to US-NCI protocol. The cell growth and cell viability were evaluated using the sulforhodamine B (SRB) colorimetric assay.
(§2) This assay was carried out according to the protocol of the Drug Evaluation Branch, NCI, Bethesda. The cell growth and cell viability were evaluated using the sulforhodamine B (SRB) colorimetric assay, as reported earlier.

OVCAR-8 = assay: NCI one-dose SRB assay; type: cell-based; conditions: Homo sapiens, OVCAR-8 (Ovarian Cancer), 1.00E-5 Molar, read-out: Growth Percent
Method: as §1, §2

NCI-H226 = assay: NCI one-dose SRB assay; type: cell-based; conditions: Homo sapiens, NCI-H226 (Non-Small Cell Lung Cancer), 1.00E-5 Molar, read-out: Growth Percent
Method: as §1, §2

SK-MEL-5 = assay: NCI one-dose SRB assay; type: cell-based; conditions: Homo sapiens, SK-MEL-5 (Melanoma), 1.00E-5 Molar, read-out: Growth Percent
Method: as §1, §2

HOP-92 = assay: NCI one-dose SRB assay; type: cell-based; conditions: Homo sapiens, HOP-92 (Non-Small Cell Lung Cancer), 1.00E-5 Molar, read-out: Growth Percent
Method: as §1, §2

HS 578T = assay: NCI one-dose SRB assay; type: cell-based; conditions: Homo sapiens, HS 578T (Breast Cancer), 1.00E-5 Molar, read-out: Growth Percent
Method: as §1, §2

COLO 205 = assay: NCI one-dose SRB assay; type: cell-based; conditions: Homo sapiens, COLO 205 (Colon Cancer), 1.00E-5 Molar, read-out: Growth Percent
Method: as §1, §2

OVCAR-4 = assay: NCI one-dose SRB assay; type: cell-based; conditions: Homo sapiens, OVCAR-4 (Ovarian Cancer), 1.00E-5 Molar, read-out: Growth Percent
Method: as §1, §2

SNB-75 = assay: NCI one-dose SRB assay; type: cell-based; conditions: Homo sapiens, SNB-75 (CNS Cancer), 1.00E-5 Molar, read-out: Growth Percent
Method: as §1, §2

RXF 393 = assay: NCI one-dose SRB assay; type: cell-based; conditions: Homo sapiens, RXF 393 (Renal Cancer), 1.00E-5 Molar, read-out: Growth Percent
Method: as §1, §2

HT29 = assay: NCI one-dose SRB assay; type: cell-based; conditions: Homo sapiens, HT-29, HT29 (Colon Cancer), 1.00E-5 Molar, read-out: Growth Percent
Method: as §1, §2

MDA-MB-435 = assay: NCI one-dose SRB assay; type: cell-based; conditions: Homo sapiens, MDA-MB-435 (Melanoma), 1.00E-5 Molar, read-out: Growth Percent
Method: as §1, §2

SW-620 = assay: NCI one-dose SRB assay; type: cell-based; conditions: Homo sapiens, SW-620 (Colon Cancer), 1.00E-5 Molar, read-out: Growth Percent
Method: as §1, §2

ACHN = assay: NCI one-dose SRB assay; type: cell-based; conditions: Homo sapiens, ACHN (Renal Cancer), 1.00E-5 Molar, read-out: Growth Percent
Method: as §1, §2

NCI-H460 = assay: NCI one-dose SRB assay; type: cell-based; conditions: Homo sapiens, NCI-H460 (Non-Small Cell Lung Cancer), 1.00E-5 Molar, read-out: Growth Percent
Method: as §1, §2

LOX IMVI = assay: NCI one-dose SRB assay; type: cell-based; conditions: Homo sapiens, LOX IMVI (Melanoma), 1.00E-5 Molar, read-out: Growth Percent
Method: as §1, §2

HCT-116 = assay: NCI one-dose SRB assay; type: cell-based; conditions: Homo sapiens, HCT-116 (Colon Cancer), 1.00E-5 Molar, read-out: Growth Percent
Method: as §1, §2

RPMI-8226 = assay: NCI one-dose SRB assay; type: cell-based; conditions: Homo sapiens, RPMI-8226 (Leukemia), 1.00E-5 Molar, read-out: Growth Percent
Method: as §1, §2

HL-60(TB) = assay: NCI one-dose SRB assay; type: cell-based; conditions: Homo sapiens, HL-60(TB) (Leukemia), 1.00E-5 Molar, read-out: Growth Percent
Method: as §1, §2

NCI-H522 = assay: NCI one-dose SRB assay; type: cell-based; conditions: Homo sapiens, NCI-H522 (Non-Small Cell Lung Cancer), 1.00E-5 Molar, read-out: Growth Percent
Method: as §1, §2

EKVX = assay: NCI one-dose SRB assay; type: cell-based; conditions: Homo sapiens, EKVX (Non-Small Cell Lung Cancer), 1.00E-5 Molar, read-out: Growth Percent
Method: as §1, §2

UACC-257 = assay: NCI one-dose SRB assay; type: cell-based; conditions: Homo sapiens, UACC-257 (Melanoma), 1.00E-5 Molar, read-out: Growth Percent
Method: as §1, §2

U251 = assay: NCI one-dose SRB assay; type: cell-based; conditions: Homo sapiens, U-251, U251 (CNS Cancer), 1.00E-5 Molar, read-out: Growth Percent
Method: as §1, §2

SK-MEL-28 = assay: NCI one-dose SRB assay; type: cell-based; conditions: Homo sapiens, SK-MEL-28 (Melanoma), 1.00E-5 Molar, read-out: Growth Percent
Method: as §1, §2

hCA IX = hCA IX (Homo sapiens, UniProt Q16790); assay: stopped-flow CO2 hydrase assay; conditions: for Selectivity ratio I/IX: KI hCA I / KI hCA IX; for Selectivity ratio II/IX: KI hCA II / KI hCA IX
Source text: as §3

UO-31 = assay: NCI one-dose SRB assay; type: cell-based; conditions: Homo sapiens; UO-31 (Renal Cancer), 1.00E-5 Molar, one dose; read-out: Growth Percent
Method: as §1
The obtained data were reported as mean-graph of the percentage growth of the different treated tumour cells (Supplementary Materials). Exploration of results for this assay confirmed that the examined diamide-based benzenesulfonamides 5a–h had non-significant activity towards most NCI cancer cell lines.
as §2

[1] = test system: panel of sixty cancer cell lines; assay: NCI one-dose SRB assay, whole panel; type: cell-based; conditions: Homo sapiens, mean over the panel, 1.00E-5 Molar, read-out: Mean Growth Percent
Method: as §1, §2

hCA I = hCA I (Homo sapiens, UniProt P00915); assay: stopped-flow CO2 hydrase assay
hCA I, sequence (P00915 whole entry): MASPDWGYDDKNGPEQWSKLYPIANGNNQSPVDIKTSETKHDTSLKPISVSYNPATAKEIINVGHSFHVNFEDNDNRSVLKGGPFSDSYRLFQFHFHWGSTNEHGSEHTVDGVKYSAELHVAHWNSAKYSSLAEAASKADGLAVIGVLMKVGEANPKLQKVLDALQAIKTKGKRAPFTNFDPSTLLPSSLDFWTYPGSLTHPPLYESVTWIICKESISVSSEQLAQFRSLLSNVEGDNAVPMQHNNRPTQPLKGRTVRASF
Source text: as §3

hCA XII, sequence (O43570 25-354): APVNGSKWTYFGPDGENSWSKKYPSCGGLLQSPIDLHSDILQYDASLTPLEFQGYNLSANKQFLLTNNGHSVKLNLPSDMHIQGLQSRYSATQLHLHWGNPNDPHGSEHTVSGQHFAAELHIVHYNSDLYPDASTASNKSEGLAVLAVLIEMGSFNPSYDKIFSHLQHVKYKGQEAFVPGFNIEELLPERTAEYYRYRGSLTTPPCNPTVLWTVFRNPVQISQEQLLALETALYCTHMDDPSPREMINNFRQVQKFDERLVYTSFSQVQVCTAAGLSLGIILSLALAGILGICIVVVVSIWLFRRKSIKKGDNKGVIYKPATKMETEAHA

Structure (SMILES) | Ki (hCA XII) [nM] | Selectivity ratio I/XII (hCA XII) | Selectivity ratio II/XII (hCA XII) | activity at 10 µM (SK-MEL-2) [%] | activity at 10 µM (OVCAR-8) [%] | activity at 10 µM (NCI-H226) [%] | activity at 10 µM (SK-MEL-5) [%] | activity at 10 µM (HOP-92) [%] | activity at 10 µM (HS 578T) [%] | activity at 10 µM (COLO 205) [%] | activity at 10 µM (OVCAR-4) [%] | activity at 10 µM (SNB-75) [%] | activity at 10 µM (RXF 393) [%] | activity at 10 µM (HT29) [%] | activity at 10 µM (MDA-MB-435) [%] | activity at 10 µM (SW-620) [%] | activity at 10 µM (ACHN) [%] | activity at 10 µM (NCI-H460) [%] | activity at 10 µM (LOX IMVI) [%] | activity at 10 µM (HCT-116) [%] | also measured
NS(=O)(=O)c1ccc(NC(=O)C(=Cc2ccc(Cl)cc2)NC(=O)c2ccccc2)cc1 [Compound 5a, N-(1-(4-Chlorophenyl)-3-oxo-3-((4-sulfamoylphenyl)amino)prop-1-en-2-yl)benzamide] | 16.1 | 245.7 | 4.2 | 102 | 97.6 | 92.9 | 100 | 98.8 | 101 | 104 | 95.5 | 86.3 | 103 | 106 | 98.7 | 100 | 100 | 106 | 97 | 93.9 | activity at 10 µM (RPMI-8226): 109%; activity at 10 µM (HL-60(TB)): 101%; activity at 10 µM (NCI-H522): 90.9%; activity at 10 µM (EKVX): 99.5%; activity at 10 µM (UACC-257): 103%; activity at 10 µM (U251): 95.3%; activity at 10 µM (SK-MEL-28): 110%; Ki (hCA IX): 8.8 nM; Selectivity ratio I/IX (hCA IX): 449.5; Selectivity ratio II/IX (hCA IX): 7.8; activity at 10 µM (UO-31): 78.7%; activity at 10 µM [1]: 100%; Ki (hCA I): 3960 nM; melting point: 255 to 258 °C
NS(=O)(=O)c1ccc(NC(=O)C(=Cc2ccc(Cl)cc2Cl)NC(=O)c2ccccc2)cc1 [Compound 5b, N-(1-(2,4-Dichlorophenyl)-3-oxo-3-((4-sulfamoylphenyl)amino)prop-1-en-2-yl)benzamide] | 10.5 | 569.2 | 21.3 | 95.3 | 101 | 103 | 90.2 | 87 | 89.5 | 110 | 97.7 | 81.4 | 96 | 103 | 97.7 | 104 | 98.2 | 105 | 96.2 | 97.3 | activity at 10 µM (RPMI-8226): 92.2%; activity at 10 µM (HL-60(TB)): 84.8%; activity at 10 µM (NCI-H522): 80.3%; activity at 10 µM (EKVX): 99.6%; activity at 10 µM (UACC-257): 102%; activity at 10 µM (U251): 97.1%; activity at 10 µM (SK-MEL-28): 110%; Ki (hCA IX): 18.3 nM; Selectivity ratio I/IX (hCA IX): 326.6; Selectivity ratio II/IX (hCA IX): 12.2; activity at 10 µM (UO-31): 75.8%; activity at 10 µM [1]: 97%; Ki (hCA I): 5980 nM; melting point: 265 to 267 °C
NS(=O)(=O)c1ccc(NC(=O)C(=Cc2ccc(Br)cc2)NC(=O)c2ccccc2)cc1 [Compound 5c, N-(1-(4-Bromophenyl)-3-oxo-3-((4-sulfamoylphenyl)amino)prop-1-en-2-yl)benzamide] | 55.4 | 43.3 | 4.5 | 97.3 | 102 | 97.2 | 93.1 | 94 | 93.9 | 105 | 93.7 | 86.5 | 95.8 | 89.1 | 95 | 104 | 100 | 107 | 99.7 | 92 | activity at 10 µM (RPMI-8226): 97.2%; activity at 10 µM (HL-60(TB)): 96.9%; activity at 10 µM (NCI-H522): 87.9%; activity at 10 µM (EKVX): 102%; activity at 10 µM (UACC-257): 105%; activity at 10 µM (U251): 93.1%; activity at 10 µM (SK-MEL-28): 113%; Ki (hCA IX): 33.5 nM; Selectivity ratio I/IX (hCA IX): 71.6; Selectivity ratio II/IX (hCA IX): 7.5; activity at 10 µM (UO-31): 77.2%; activity at 10 µM [1]: 97.3%; Ki (hCA I): 2400 nM; melting point: 210 to 212 °C
COc1ccc(C=C(NC(=O)c2ccccc2)C(=O)Nc2ccc(S(N)(=O)=O)cc2)cc1 [Compound 5e, N-(1-(4-Methoxyphenyl)-3-oxo-3-((4-sulfamoylphenyl)amino)prop-1-en-2-yl)benzamide] | 42.8 | 23.5 | 3 | 102 | 99.4 | 105 | 100 | 109 | 102 | 110 | 111 | 95.5 | 110 | 100 | 97.5 | 101 | 102 | 105 | 99.1 | 105 | activity at 10 µM (RPMI-8226): 107%; activity at 10 µM (HL-60(TB)): 99.2%; activity at 10 µM (NCI-H522): 90.5%; activity at 10 µM (EKVX): 105%; activity at 10 µM (UACC-257): 102%; activity at 10 µM (U251): 99.4%; activity at 10 µM (SK-MEL-28): 106%; Ki (hCA IX): 78 nM; Selectivity ratio I/IX (hCA IX): 12.9; Selectivity ratio II/IX (hCA IX): 1.5; activity at 10 µM (UO-31): 86.4%; activity at 10 µM [1]: 103%; Ki (hCA I): 1010 nM
